Laboratory results: patent US10647679B2, “N-methyl-D-aspartate receptor (NMDAR) potentiators, pharmaceutical compositions, and uses related thereto” (Emory University, priority 2015, dated 2020)
Like-named read-outs stand apart in the source and are kept apart here. Blank lines part the entries; values can stand above or below the molecule they belong to.

Experiments:
Type in all cases: cell-based
[1] = molecular target: T1, recombinant rat GluN1/GluN2D (Rattus norvegicus, UniProt Q62645); assay: Two-electrode voltage-clamp (TEVC) recordings in Xenopus laevis oocytes, GluN1/GluN2D; conditions: for I30 μM/Icontrol (mean ± SEM, %) GluN2D: 30 μM compound, Tables 5-7
T1 construct: expressed in transfected cells; host or cells: Xenopus laevis oocytes (Ecocyte) injected with in vitro transcribed cRNA
Protocol: (§1) Data are from between 3-26 oocytes from 2-5 frogs for each compound and receptor tested.
(§2) Two-electrode voltage-clamp recordings were performed in Xenopus laevis oocytes (Ecocyte) expressing recombinant rat GluN1/GluN2A, GluN1/GluN2B, GluN1/GluN2C, GluN1/GluN2D. cRNA was transcribed in vitro (Ambion), diluted with nuclease free water, and injected at a ratio of 1:2 GluN1:GluN2 (5-10 ng total cRNA). The oocytes were kept in Barth's solution comprised of (in mM) 88 NaCl, 5 Tris-HCl, 2.4 NaHCO3, 1 KCl, 0.84 MgSO4, 0.41 CaCl2, and 0.33 Ca(NO3)2 at pH 7.4 at 15-17° C. for two to five days before experiments. Oocytes were placed into a perfusion chamber and continually washed with recording solution containing (in mM) 90 NaCl, 1.0 KCl, 0.5 BaCl2, 0.005 EDTA, and 10 HEPES at pH 7.4 (23° C.). Voltage clamp recordings were conducted at a holding potential of −40 mV. All compounds were made as 20 mM stock solutions in DMSO and dissolved to reach the final concentration in recording solution. Final DMSO content was 0.05-0.5% (vol/vol). Some oocytes expressing GluN1/GluN2A were pretreated with […] BAPTA-AM for 10 minutes or injected with […] of 2 mM K-BAPTA to prevent gradual run-up of the current response.

[2] = molecular target: T2, recombinant rat GluN1/GluN2C (Rattus norvegicus, UniProt Q00961); assay: Two-electrode voltage-clamp (TEVC) recordings in Xenopus laevis oocytes, GluN1/GluN2C; conditions: for I30 μM/Icontrol (mean ± SEM, %) GluN2C: 30 μM compound, Tables 5-7
T2 construct: expressed in transfected cells; host or cells: Xenopus laevis oocytes (Ecocyte) injected with in vitro transcribed cRNA
Protocol: as §1, §2

[3] = molecular target: T3, recombinant rat GluN1/GluN2C (Rattus norvegicus, UniProt P35439+Q00961); assay: as above; conditions: for Emax: maximum potentiation, response without modulator = 100%, read-out: GluN2C EC50 (μM)/Max %: Max %
T3 construct: expressed in transfected cells; host or cells: Xenopus laevis oocytes (Ecocyte) injected with in vitro transcribed cRNA
Protocol: as §1, §2

[4] = molecular target: T4, recombinant rat GluN1/GluN2B (Rattus norvegicus, UniProt P35439+Q00960); assay: Two-electrode voltage-clamp (TEVC) recordings in Xenopus laevis oocytes, GluN1/GluN2B
T4 construct: expressed in transfected cells; host or cells: Xenopus laevis oocytes (Ecocyte) injected with in vitro transcribed cRNA
Protocol: as §1, §2

[5] = molecular target: T5, recombinant rat GluN1/GluN2B (Rattus norvegicus, UniProt Q00960); assay: as above; conditions: for I30 μM/Icontrol (mean ± SEM, %) GluN2B: 30 μM compound, Tables 5-7
T5 construct: expressed in transfected cells; host or cells: Xenopus laevis oocytes (Ecocyte) injected with in vitro transcribed cRNA
Protocol: as §1, §2

[6] = maximum potentiation, response without modulator = 100%, read-out: GluN2B EC50 (μM)/Max %: Max %
[7] = untitled tables after drawing 25 and drawing 36, read-out: EC50 (μM) GluN2C
[8] = maximum potentiation, response without modulator = 100%
[9] = percentage of the initial glutamate (100 μM) and glycine (30 μM) current
[10] = fitted when potentiation at 30 μM exceeded 120%, Tables 3, 5-7, read-out: EC50 (max.) (μM %) GluN2B: fitted EC50

T3 sequence (Q00961 20-1237, other chains not shown): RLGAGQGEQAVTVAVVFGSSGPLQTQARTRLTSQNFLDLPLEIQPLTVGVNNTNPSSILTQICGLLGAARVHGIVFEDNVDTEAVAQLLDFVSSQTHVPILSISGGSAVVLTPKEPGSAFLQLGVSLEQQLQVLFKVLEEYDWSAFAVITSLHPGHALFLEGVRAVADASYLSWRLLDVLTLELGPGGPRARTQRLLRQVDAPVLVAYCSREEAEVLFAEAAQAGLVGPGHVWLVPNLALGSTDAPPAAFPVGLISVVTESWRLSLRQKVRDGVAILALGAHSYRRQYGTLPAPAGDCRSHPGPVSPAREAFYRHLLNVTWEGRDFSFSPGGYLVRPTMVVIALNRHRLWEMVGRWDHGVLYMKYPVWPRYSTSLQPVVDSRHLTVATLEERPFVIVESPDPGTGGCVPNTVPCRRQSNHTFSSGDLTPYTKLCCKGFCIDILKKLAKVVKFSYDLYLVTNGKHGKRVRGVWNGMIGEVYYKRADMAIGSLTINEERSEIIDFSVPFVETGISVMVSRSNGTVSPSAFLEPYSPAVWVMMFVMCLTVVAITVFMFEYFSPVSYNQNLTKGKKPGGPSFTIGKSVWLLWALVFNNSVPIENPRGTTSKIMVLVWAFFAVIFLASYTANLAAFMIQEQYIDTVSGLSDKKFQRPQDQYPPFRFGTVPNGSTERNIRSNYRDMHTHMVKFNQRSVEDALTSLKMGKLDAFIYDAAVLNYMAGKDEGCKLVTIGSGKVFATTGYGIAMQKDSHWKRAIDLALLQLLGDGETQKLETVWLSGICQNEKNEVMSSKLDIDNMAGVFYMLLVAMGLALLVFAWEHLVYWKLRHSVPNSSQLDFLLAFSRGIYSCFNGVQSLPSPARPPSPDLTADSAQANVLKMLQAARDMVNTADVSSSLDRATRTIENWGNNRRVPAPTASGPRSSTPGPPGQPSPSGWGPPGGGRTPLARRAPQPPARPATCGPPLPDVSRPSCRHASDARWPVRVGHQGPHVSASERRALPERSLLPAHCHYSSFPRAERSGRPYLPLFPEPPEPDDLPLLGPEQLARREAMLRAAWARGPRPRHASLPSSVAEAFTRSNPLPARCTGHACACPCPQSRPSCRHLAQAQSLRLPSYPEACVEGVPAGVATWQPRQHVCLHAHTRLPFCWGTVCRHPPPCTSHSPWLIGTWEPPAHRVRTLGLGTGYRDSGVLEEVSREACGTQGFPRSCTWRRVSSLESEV
T2 sequence (Q00961 20-1237, other chains not shown): as above
T1 sequence (Q62645 28-1323, other chains not shown): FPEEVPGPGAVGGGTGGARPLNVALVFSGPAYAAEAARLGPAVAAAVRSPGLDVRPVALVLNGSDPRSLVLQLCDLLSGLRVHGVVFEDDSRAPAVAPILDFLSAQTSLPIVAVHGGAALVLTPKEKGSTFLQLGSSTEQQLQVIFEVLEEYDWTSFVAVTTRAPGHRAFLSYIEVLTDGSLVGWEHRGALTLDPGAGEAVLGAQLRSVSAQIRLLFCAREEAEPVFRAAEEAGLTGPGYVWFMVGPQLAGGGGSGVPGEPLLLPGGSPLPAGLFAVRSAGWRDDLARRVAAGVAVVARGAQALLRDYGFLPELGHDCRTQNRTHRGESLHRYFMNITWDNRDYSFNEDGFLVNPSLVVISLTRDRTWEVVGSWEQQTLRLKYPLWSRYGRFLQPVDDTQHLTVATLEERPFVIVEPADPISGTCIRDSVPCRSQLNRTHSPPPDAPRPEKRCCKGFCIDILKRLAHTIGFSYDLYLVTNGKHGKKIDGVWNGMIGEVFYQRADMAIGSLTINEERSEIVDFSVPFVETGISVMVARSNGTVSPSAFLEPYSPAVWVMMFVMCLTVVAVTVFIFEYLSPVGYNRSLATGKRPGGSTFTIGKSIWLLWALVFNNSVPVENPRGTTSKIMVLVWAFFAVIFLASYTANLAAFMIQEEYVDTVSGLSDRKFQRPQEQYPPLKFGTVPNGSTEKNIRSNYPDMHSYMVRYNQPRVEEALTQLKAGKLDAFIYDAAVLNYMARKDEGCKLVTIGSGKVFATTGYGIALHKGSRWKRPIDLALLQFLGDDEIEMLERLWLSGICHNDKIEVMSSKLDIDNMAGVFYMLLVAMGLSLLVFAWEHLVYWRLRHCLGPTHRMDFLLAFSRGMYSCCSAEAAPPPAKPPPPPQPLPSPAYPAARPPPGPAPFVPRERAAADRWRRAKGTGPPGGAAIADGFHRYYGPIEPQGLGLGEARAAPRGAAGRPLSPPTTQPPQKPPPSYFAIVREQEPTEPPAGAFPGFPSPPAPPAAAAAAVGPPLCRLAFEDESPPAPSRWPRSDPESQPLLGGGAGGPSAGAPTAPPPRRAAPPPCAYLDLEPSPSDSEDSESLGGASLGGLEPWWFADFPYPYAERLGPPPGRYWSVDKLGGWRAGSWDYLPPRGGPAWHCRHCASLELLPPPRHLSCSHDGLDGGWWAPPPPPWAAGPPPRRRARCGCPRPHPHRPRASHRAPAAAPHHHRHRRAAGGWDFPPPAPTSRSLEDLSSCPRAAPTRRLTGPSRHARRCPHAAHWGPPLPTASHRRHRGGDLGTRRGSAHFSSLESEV
T5 sequence (Q00960 27-1482, other chains not shown): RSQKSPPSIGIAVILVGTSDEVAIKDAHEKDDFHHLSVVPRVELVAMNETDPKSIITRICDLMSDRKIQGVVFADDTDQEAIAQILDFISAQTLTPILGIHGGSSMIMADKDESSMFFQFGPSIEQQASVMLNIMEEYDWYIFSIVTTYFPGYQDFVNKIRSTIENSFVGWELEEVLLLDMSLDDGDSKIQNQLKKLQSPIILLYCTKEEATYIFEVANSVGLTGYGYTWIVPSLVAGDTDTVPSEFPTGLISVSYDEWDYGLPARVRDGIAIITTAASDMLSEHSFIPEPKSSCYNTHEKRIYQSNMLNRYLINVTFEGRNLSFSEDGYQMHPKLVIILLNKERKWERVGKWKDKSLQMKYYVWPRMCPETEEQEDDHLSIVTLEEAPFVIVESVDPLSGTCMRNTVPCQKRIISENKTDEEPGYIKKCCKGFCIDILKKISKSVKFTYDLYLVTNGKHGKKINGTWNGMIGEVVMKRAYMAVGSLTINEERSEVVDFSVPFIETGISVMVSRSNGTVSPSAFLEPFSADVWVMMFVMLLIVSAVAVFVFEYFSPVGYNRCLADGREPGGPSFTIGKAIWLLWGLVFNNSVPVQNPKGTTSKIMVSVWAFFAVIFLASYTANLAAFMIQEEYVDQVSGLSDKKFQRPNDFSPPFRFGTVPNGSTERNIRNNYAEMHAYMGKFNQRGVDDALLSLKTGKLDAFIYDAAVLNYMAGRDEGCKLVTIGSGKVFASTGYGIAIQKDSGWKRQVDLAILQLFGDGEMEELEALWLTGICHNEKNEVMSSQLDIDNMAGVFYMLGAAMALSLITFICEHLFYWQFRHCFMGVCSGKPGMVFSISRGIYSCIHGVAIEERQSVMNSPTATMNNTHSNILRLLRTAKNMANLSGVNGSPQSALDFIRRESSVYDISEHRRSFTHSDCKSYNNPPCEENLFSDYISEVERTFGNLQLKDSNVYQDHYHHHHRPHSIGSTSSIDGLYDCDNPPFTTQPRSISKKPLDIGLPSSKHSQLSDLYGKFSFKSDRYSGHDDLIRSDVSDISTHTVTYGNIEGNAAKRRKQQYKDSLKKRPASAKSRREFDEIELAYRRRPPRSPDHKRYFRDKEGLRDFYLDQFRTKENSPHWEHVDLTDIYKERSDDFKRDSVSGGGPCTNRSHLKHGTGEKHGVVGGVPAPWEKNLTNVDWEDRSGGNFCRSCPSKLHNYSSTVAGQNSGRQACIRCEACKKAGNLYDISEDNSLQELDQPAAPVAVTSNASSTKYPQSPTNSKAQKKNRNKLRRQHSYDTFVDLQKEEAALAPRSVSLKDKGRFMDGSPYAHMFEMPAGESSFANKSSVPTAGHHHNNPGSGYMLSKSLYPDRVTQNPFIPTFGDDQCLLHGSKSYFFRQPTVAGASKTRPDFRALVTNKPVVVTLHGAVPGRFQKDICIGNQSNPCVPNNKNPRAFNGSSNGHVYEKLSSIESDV

SMILES: COc1ccc(OCC2c3cc(OC)c(OC)cc3CCN2C(=S)c2cccc(Br)c2)cc1 (racemic) [1180-157]
- EC50 & Max Effect: 2D (μM) [1]: Inactive
- EC50 & Max Effect: 2C (μM) [2]: Inactive

- Emax [3]: 125%
- Emax [4, 6]: 141%
SMILES: CCOc1ccc(OCC2c3ccc(OC(C)C)cc3CCN2C(=O)c2cccc(Cl)c2)cc1 (stereo not drawn) [1180-83]

- I30 μM/Icontrol (mean ± SEM, %) GluN2D [1]: 75%
- I30 μM/Icontrol (mean ± SEM, %) GluN2C [2]: 73%
- I30 μM/Icontrol (mean ± SEM, %) GluN2B [5]: 75%
SMILES: CCOc1ccc(OC[C@H]2c3ccc(OC(C)C)cc3CCN2C(=O)c2cccc(C(F)(F)F)c2)cc1 [(R)-(+)-1180-92]

- GluN2D response % at 30 µM [1]: 96 at 30%
- GluN2C response % at 30 µM [2]: 102 at 30%
- GluN2B response % at 30 µM [5]: 95 at 30%
SMILES: COc1ccc(OCC2c3cc(OC(=O)c4cccc(Cl)c4)c(OC)cc3CCN2C(=O)C=CC(F)(F)F)cc1 (stereo not drawn) [1180-330]

- I30 μM/Icontrol (mean ± SEM, %) GluN2D [1]: 93%
- I30 μM/Icontrol (mean ± SEM, %) GluN2C [2]: 92%
- I30 μM/Icontrol (mean ± SEM, %) GluN2B [5]: 83%
SMILES: CCOc1ccc(OC[C@H]2c3ccc(OC(C)C)cc3CCN2C(=O)c2ccc(Cl)c(Cl)c2)cc1 [(R)-(+)-1180-103]

- Emax [3]: 169%
- Emax [4, 6]: 157%
SMILES: CCOc1ccc(OCC2c3ccc(OC(C)C)cc3CCN2C(=S)c2ccc(Cl)c(Cl)c2)cc1 (stereo not drawn) [1180-155]

- GluN2D response % at 100 μM ([1]; at 100 μM): 223% at 100
- EC50 [3, 7]: 65 µM
- GluN2B response % at 30 µM [5]: 99% at 30
SMILES: COc1ccc(OCC2c3ccc(OC)cc3CCN2C(=O)c2coc(Cl)n2)cc1 (stereo not drawn) [1180-247]

SMILES: COc1ccc(OCC2c3cc(OC)c(OC)cc3CCN2C(=O)c2cccc(Cl)c2)cc1 (stereo not drawn) [1390 (CIQ), reference compound]
- EC50 & Max Effect: 2D Max (%) ([1]; Tables 11-13): 205%
- EC50 & Max Effect: 2C Max (%) [2]: 215%
- EC50 ([2]; read-out: EC50 & Max Effect: 2C): 2.9 µM

- GluN2D response % at 30 µM [1]: 146% at 30
- GluN2C response % at 30 µM [2]: 165% at 30
- GluN2B response % at 30 µM [5]: 145% at 30
SMILES: CCOc1ccc(OCC2c3ccc(OC(C)C)cc3CCN2C(=O)C=C(C)C(F)(F)F)cc1 (stereo not drawn) [1180-263]

- EC50 ([1]; untitled tables after drawing 25 and drawing 36, read-out: EC50 (μM) GluN2D): 9 µM
- EC50 [2, 7]: 7 µM
- GluN2B response % at 30 µM [5]: 101% at 30
SMILES: COc1ccc(OCC2c3ccc(OC)cc3CCN2C(=O)C=CC(F)(F)F)cc1 (stereo not drawn) [1180-253]

- I10 μM/Icontrol (mean ± SEM, %) GluN2D ([1]; 10 μM compound, Table 3): 231%
- EC50 & Max Effect: 2D Max (%) ([1]; Tables 11-13): 249%
- EC50 ([1]; Tables 11-13, read-out: EC50 & Max Effect: 2D): 0.43 µM
- EC50 ([1]; fitted when potentiation at 30 μM exceeded 120%, Tables 3, 5-7, read-out: EC50 (max.) (μM %) GluN2D: fitted EC50): 0.14 µM
- GluN2D EC50 (μM)/Max %: Max % [1, 8]: 249%
- EC50 (max.) (μM %) GluN2D: fitted maximum response [1, 9]: (260%)
- I10 μM/Icontrol (mean ± SEM, %) GluN2C ([2]; 10 μM compound, Table 3): 272%
- EC50 & Max Effect: 2C Max (%) ([2]; Tables 11-13): 247%
- EC50 ([2]; Tables 11-13, read-out: EC50 & Max Effect: 2C): 0.43 µM
- EC50 ([2]; fitted when potentiation at 30 μM exceeded 120%, Tables 3, 5-7, read-out: EC50 (max.) (μM %) GluN2C: fitted EC50): 0.32 µM
- GluN2C EC50 (μM)/Max %: Max % [2, 8]: 247%
- EC50 (max.) (μM %) GluN2C: fitted maximum response [2, 9]: (273%)
- I10 μM/Icontrol (mean ± SEM, %) GluN2B ([5]; 10 μM compound, Table 3): 212%
- EC50 [5, 10]: 0.11 µM
- GluN2B EC50 (μM)/Max %: Max % [5, 8]: 262%
- EC50 (max.) (μM %) GluN2B: fitted maximum response [5, 9]: (228%)
SMILES: COc1ccc(OCC2c3ccc(OC(C)C)cc3CCN2C(=S)c2cccc(Cl)c2)cc1 (racemic) [1180-163]

- I30 μM/Icontrol (mean ± SEM, %) GluN2D [1]: 86%
- I30 μM/Icontrol (mean ± SEM, %) GluN2C [2]: 103%
- I30 μM/Icontrol (mean ± SEM, %) GluN2B [5]: 103%
SMILES: CCOc1ccc(OC[C@H]2c3ccc(OC(C)C)cc3CCN2C(=O)c2cccc(F)c2)cc1 [(R)-(+)-1180-87]

SMILES: CCOc1ccc(OCC2c3ccc(OC(C)C)cc3CCN2C(=O)c2cccc(C(F)(F)F)c2)cc1 (stereo not drawn) [1180-92]
- EC50 [4, 10]: 2.5 µM
- Emax ([4]; percentage of the initial glutamate (100 μM) and glycine (30 μM) current, read-out: EC50 (max.) (μM %) GluN2B: fitted maximum response): 122%

- GluN2D response % at 30 µM [1]: 88% at 30
- GluN2C response % at 30 µM [2]: 99% at 30
- GluN2B response % at 30 µM [5]: 96% at 30
SMILES: COc1ccc(OCC2c3ccc(OC)cc3CCN2C(=O)C=CCl)cc1 (stereo not drawn) [1180-251]

- GluN2D response % at 30 µM [1]: 120 at 30%
- GluN2C response % at 30 µM [2]: 109 at 30%
- GluN2B response % at 30 µM [5]: 100 at 30%
SMILES: COc1ccc(OCC2c3cc(O)c(OC)cc3CCN2C(=O)C=CC(F)(F)F)cc1 (stereo not drawn) [1180-328]

- GluN2D response % at 30 µM [1]: 114% at 30
- GluN2C response % at 30 µM [2]: 115% at 30
- GluN2B response % at 30 µM [5]: 100% at 30
SMILES: CCOCC(=O)N1CCc2cc(OC)ccc2C1COc1ccc(OC)cc1 (stereo not drawn) [1180-240]
